Assay [1] has as its system U87MG pLVX-IDH2 R140Q-neo cells. Briefly: U87MG pLVX-IDH2 R140Q-neo cell based assay, 2-HG in media by LC-MS at 48 hours. The conditions noted are these: Homo sapiens, U-87 MG. The essentials:
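2-HG secreted into the medium was measured by LC-MS after 48 h of compound treatment (0.2% DMSO final) of U87MG pLVX-IDH2 R140Q-neo cells in DMEM/10% FBS. The same wells were assayed at 72 h by CellTiter-Glo luminescence for effects on growth.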

Another assay addresses T1, IDH2 R140Q (Homo sapiens, UniProt P48735, R140Q).
T1 sequence (P48735 40-452 R140Q): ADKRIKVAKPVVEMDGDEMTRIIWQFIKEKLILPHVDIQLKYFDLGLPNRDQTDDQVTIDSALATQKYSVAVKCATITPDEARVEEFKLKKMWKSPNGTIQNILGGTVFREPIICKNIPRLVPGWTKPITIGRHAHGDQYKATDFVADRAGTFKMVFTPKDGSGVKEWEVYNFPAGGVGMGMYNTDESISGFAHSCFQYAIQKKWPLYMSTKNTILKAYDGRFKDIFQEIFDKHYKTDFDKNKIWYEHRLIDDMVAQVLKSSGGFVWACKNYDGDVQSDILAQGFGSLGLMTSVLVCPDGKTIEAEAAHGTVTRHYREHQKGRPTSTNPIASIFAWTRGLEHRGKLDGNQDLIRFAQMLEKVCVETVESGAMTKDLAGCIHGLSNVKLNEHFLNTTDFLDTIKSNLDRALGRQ
Nature of the assay: IDH2 R140Q enzymatic assay (cofactor depletion, similar format). The format is biochemical. The conditions noted are these: read-out: Enz R140Q.

For the molecule `O=C1C=C(Nc2nc(Nc3ccccc3)nc(-c3ccccc3)n2)CCC1` [Compound 362, 3-(4-phenyl-6-(phenylamino)-1,3,5-triazin-2-ylamino)cyclohex-2-enone], the IC50 (in assay [1]; on IDH2 R140Q) was 100 to 1000 nM throughout.

For `CC(C)(C)CNc1nc(Nc2ccc(F)nc2)nc(-c2ccccn2)n1` [Compound 363, N^2-(6-fluoropyridin-3-yl)-N^4-neopentyl-6-(pyridin-2-yl)-1,3,5-triazine-2,4-diamine], the IC50 is under 100 nM in assay [1] and 100 to 1000 nM at IDH2 R140Q.

For `CNc1cccc(-c2nc(Nc3cccc(S(C)(=O)=O)c3)nc(NC(C)C)n2)n1` [Compound 364, N^2-isopropyl-6-(6-(methylamino)pyridin-2-yl)-N^4-(3-(methylsulfonyl)phenyl)-1,3,5-triazine-2,4-diamine], the IC50 in assay [1] was 100 to 1000 nM; at IDH2 R140Q, 1000 to 10000 nM.

For the molecule `CC(C)Nc1nc(Nc2cccc(S(C)(=O)=O)c2)nc(-c2cccc(C(F)F)n2)n1` [Compound 366, 6-(6-(difluoromethyl)pyridin-2-yl)-N^2-isopropyl-N^4-(3-(methylsulfonyl)phenyl)-1,3,5-triazine-2,4-diamine], the figures for the IC50 (in assay [1]; on IDH2 R140Q) were under 100 nM and 100 to 1000 nM, respectively.

Turning to `CC(C)(O)CNc1nc(Nc2cncc(C(F)(F)F)c2)nc(-c2cccc(Cl)n2)n1` [Compound 367, 1-(4-(6-chloropyridin-2-yl)-6-(5-(trifluoromethyl)pyridin-3-ylamino)-1,3,5-triazin-2-ylamino)-2-methylpropan-2-ol], the figures for the IC50 (in assay [1]; at IDH2 R140Q) were under 100 nM and 100 to 1000 nM, respectively.

On to `CC(C)(O)CNc1nc(Nc2ccnc(F)c2)nc(-c2cccc(Cl)n2)n1` [Compound 368, 1-(4-(6-chloropyridin-2-yl)-6-(2-fluoropyridin-4-ylamino)-1,3,5-triazin-2-ylamino)-2-methylpropan-2-ol], for which the IC50 in assay [1] is under 100 nM; at IDH2 R140Q, 1000 to 10000 nM.

As to `CC(C)Nc1nc(Nc2ccnc(C#N)c2)nc(-c2ccccc2F)n1` [Compound 369, 4-(4-(2-fluorophenyl)-6-(isopropylamino)-1,3,5-triazin-2-ylamino)picolinonitrile], the IC50 (in assay [1]; on IDH2 R140Q) was under 100 nM in each case.

Regarding `CC(C)Nc1nc(Nc2ccnc(C(F)(F)F)c2)nc(-c2ccccc2F)n1` [Compound 370, 6-(2-fluorophenyl)-N^2-isopropyl-N^4-(2-(trifluoromethyl)pyridin-4-yl)-1,3,5-triazine-2,4-diamine], the IC50 (in assay [1]; on IDH2 R140Q) was under 100 nM in each case.

`CC(C)Nc1nc(Nc2ccnc(F)c2)nc(-c2ccccc2F)n1` [Compound 371, 6-(2-fluorophenyl)-N^2-(2-fluoropyridin-4-yl)-N^4-isopropyl-1,3,5-triazine-2,4-diamine]: the IC50 (in assay [1]; on IDH2 R140Q) was under 100 nM each time.

With `CC(C)Nc1nc(Nc2cccc(S(=O)(=O)N3CCC3)c2)nc(-c2ccccc2)n1` [Compound 376, N^2-(3-(azetidin-1-ylsulfonyl)phenyl)-N^4-isopropyl-6-phenyl-1,3,5-triazine-2,4-diamine], the values for the IC50 (in assay [1]; at IDH2 R140Q) were under 100 nM and 100 to 1000 nM, respectively.

For `Fc1cc(Nc2nc(NC3COC3)nc(-c3cccc(C(F)(F)F)n3)n2)ccn1` [Compound 377, N^2-(2-fluoropyridin-4-yl)-N^4-(oxetan-3-yl)-6-(6-(trifluoromethyl)pyridin-2-yl)-1,3,5-triazine-2,4-diamine], the IC50 is under 100 nM in assay [1] and 100 to 1000 nM at IDH2 R140Q.

As for `FC(F)(F)c1cc(Nc2nc(NC3COC3)nc(-c3cccc(C(F)(F)F)n3)n2)ccn1` [Compound 378, N^2-(oxetan-3-yl)-6-(6-(trifluoromethyl)pyridin-2-yl)-N^4-(2-(trifluoromethyl)pyridin-4-yl)-1,3,5-triazine-2,4-diamine], the figures for the IC50 (in assay [1]; at IDH2 R140Q) were under 100 nM and 100 to 1000 nM, respectively.

Turning to `FC(F)(F)c1cncc(Nc2nc(NC3COC3)nc(-c3cccc(C(F)(F)F)n3)n2)c1` [Compound 379, N^2-(oxetan-3-yl)-6-(6-(trifluoromethyl)pyridin-2-yl)-N^4-(5-(trifluoromethyl)pyridin-3-yl)-1,3,5-triazine-2,4-diamine], the values for the IC50 (in assay [1]; at IDH2 R140Q) were under 100 nM and 100 to 1000 nM, respectively.

For the molecule `Fc1ccc(Nc2nc(NC3COC3)nc(-c3cccc(C(F)(F)F)n3)n2)cn1` [Compound 380, N^2-(6-fluoropyridin-3-yl)-N^4-(oxetan-3-yl)-6-(6-(trifluoromethyl)pyridin-2-yl)-1,3,5-triazine-2,4-diamine], the IC50 (in assay [1]; on IDH2 R140Q) was 100 to 1000 nM each time.

Take `Fc1cncc(Nc2nc(NC3COC3)nc(-c3cccc(C(F)(F)F)n3)n2)c1` [Compound 381, N^2-(5-fluoropyridin-3-yl)-N^4-(oxetan-3-yl)-6-(6-(trifluoromethyl)pyridin-2-yl)-1,3,5-triazine-2,4-diamine]: the IC50 in assay [1] was under 100 nM; at IDH2 R140Q, 100 to 1000 nM.

As to `CC(C)Nc1nc(Nc2cncc(C#N)c2)nc(-c2cccc(Cl)n2)n1` [Compound 382, 5-(4-(6-chloropyridin-2-yl)-6-(isopropylamino)-1,3,5-triazin-2-ylamino)nicotinonitrile], the IC50 is under 100 nM in assay [1] and 100 to 1000 nM at IDH2 R140Q.

`CC(C)Nc1nc(Nc2cncc(F)c2)nc(-c2cccc(Cl)n2)n1` [Compound 383, 6-(6-chloropyridin-2-yl)-N^2-(5-fluoropyridin-3-yl)-N^4-isopropyl-1,3,5-triazine-2,4-diamine]: the IC50 was under 100 nM in assay [1] and 100 to 1000 nM on IDH2 R140Q.

On to `CC(C)Nc1nc(Nc2ccnc(F)c2)nc(-c2cccc(Cl)n2)n1` [Compound 384, 6-(6-chloropyridin-2-yl)-N^2-(2-fluoropyridin-4-yl)-N^4-isopropyl-1,3,5-triazine-2,4-diamine], for which the IC50 in assay [1] was under 100 nM; at IDH2 R140Q it was 100 to 1000 nM.

In the case of `CC(C)(O)CNc1nc(Nc2ccc(F)nc2)nc(-c2cccc(C(F)(F)F)n2)n1` [Compound 385, 1-(4-(6-fluoropyridin-3-ylamino)-6-(6-(trifluoromethyl)pyridin-2-yl)-1,3,5-triazin-2-ylamino)-2-methylpropan-2-ol], the IC50 in assay [1] fell in the range of 100 to 1000 nM; on IDH2 R140Q, 1000 to 10000 nM.

As to `CC(C)Nc1nc(Nc2ccc(F)nc2)nc(-c2ccccc2F)n1` [Compound 387, 6-(2-fluorophenyl)-N^2-(6-fluoropyridin-3-yl)-N^4-isopropyl-1,3,5-triazine-2,4-diamine], the IC50 (in assay [1]; at IDH2 R140Q) was under 100 nM each time.

As to `CC(C)(O)CNc1nc(Nc2ccc(F)nc2)nc(-c2cccc(Cl)n2)n1` [Compound 388, 1-(4-(6-chloropyridin-2-yl)-6-(6-fluoropyridin-3-ylamino)-1,3,5-triazin-2-ylamino)-2-methylpropan-2-ol], the values for the IC50 (in assay [1]; on IDH2 R140Q) were 100 to 1000 nM and 1000 to 10000 nM, respectively.

As for `CC(O)CNc1nc(Nc2ccnc(C(F)(F)F)c2)nc(-c2cccc(Cl)n2)n1` (centres unmarked) [Compound 389, 1-(4-(6-chloropyridin-2-yl)-6-(2-(trifluoromethyl)pyridin-4-ylamino)-1,3,5-triazin-2-ylamino)propan-2-ol], the IC50 in assay [1] is under 100 nM; at IDH2 R140Q, 1000 to 10000 nM.

Consider `CC(C)(O)CNc1nc(Nc2cncc(F)c2)nc(-c2cccc(Cl)n2)n1` [Compound 390, 1-(4-(6-chloropyridin-2-yl)-6-(5-fluoropyridin-3-ylamino)-1,3,5-triazin-2-ylamino)-2-methylpropan-2-ol], for which the IC50 in assay [1] lay within 100 to 1000 nM; on IDH2 R140Q, 1000 to 10000 nM.

Consider `CC(C)(O)CNc1nc(Nc2ccnc(C(F)(F)F)c2)nc(-c2cccc(Cl)n2)n1` [Compound 391, 1-(4-(6-chloropyridin-2-yl)-6-(2-(trifluoromethyl)pyridin-4-ylamino)-1,3,5-triazin-2-ylamino)-2-methylpropan-2-ol], for which the results for the IC50 (in assay [1]; on IDH2 R140Q) were under 100 nM and 100 to 1000 nM, respectively.

For `CC(C)(O)CNc1nc(Nc2cncc(C(F)(F)F)c2)nc(-c2ccccc2F)n1` [Compound 392, 1-(4-(2-fluorophenyl)-6-(5-(trifluoromethyl)pyridin-3-ylamino)-1,3,5-triazin-2-ylamino)-2-methylpropan-2-ol], the IC50 in assay [1] was under 100 nM; on IDH2 R140Q, 100 to 1000 nM.

Turning to `Fc1cc(Nc2nc(NC3COC3)nc(-c3cccc(Cl)n3)n2)ccn1` [Compound 393, 6-(6-chloropyridin-2-yl)-N^2-(2-fluoropyridin-4-yl)-N^4-(oxetan-3-yl)-1,3,5-triazine-2,4-diamine], the results for the IC50 (in assay [1]; on IDH2 R140Q) were under 100 nM and 100 to 1000 nM, respectively.

As to `CC(C)Nc1nc(Nc2cncc(C(F)(F)F)c2)nc(-c2cccc(Cl)n2)n1` [Compound 394, 6-(6-chloropyridin-2-yl)-N^2-isopropyl-N4-(5-(trifluoromethyl)pyridin-3-yl)-1,3,5-triazine-2,4-diamine], the IC50 (in assay [1]; on IDH2 R140Q) was under 100 nM each time.

Consider `CC(C)Nc1nc(Nc2cccc(S(C)(=O)=O)c2)nc(-c2cccc(C(C)(F)F)n2)n1` [Compound 395, 6-(6-(1,1-difluoroethyl)pyridin-2-yl)-N^2-isopropyl-N^4-(3-(methylsulfonyl)phenyl)-1,3,5-triazine-2,4-diamine], for which the IC50 in assay [1] is under 100 nM; at IDH2 R140Q, 100 to 1000 nM.

These data come from patent US9512107B2, “Therapeutically active compositions and their methods of use” (Agios Pharmaceuticals, Inc., priority 2012, dated 2016).
